# Source: PMC10689823, “Discovery of a Drug-like, Natural Product-Inspired DCAF11 Ligand Chemotype” (Nature Communications, 2023)
# Several values for one entry are separate records, joined by “and”; a condition that tells them apart may be missing. Equal entries are not always repeated.
# Tests used:
# Format in all cases: cell-based
# BRD2 [1] = experiment: In-Cell Western for BRD2 levels in Hep G2 cells
# How it was run: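 Hep G2 cells were treated with compound for the indicated time and concentration. After fixation and permeabilisation, BRD2 was immunostained and read by near-infrared imaging. BRD2 signal was normalised to vinculin.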
# [2] = Cell viability assay (CellTiter-Glo) in Jurkat cells; conditions: human, Jurkat cells; for viability at 72 h, 10 nmol/L: concentration 10 nmol/L; for viability at 72 h, 30 nmol/L: concentration 30 nmol/L; for viability at 72 h, 100 nmol/L: concentration 100 nmol/L; for viability at 72 h, 1000 nmol/L: concentration 1000 nmol/L; for viability at 72 h, 3000 nmol/L: concentration 3000 nmol/L; for viability at 72 h, 0.01 µM: 10 nM; for viability at 72 h, 0.03 µM: 30 nM; for viability at 72 h, 0.1 µM: 100 nM; for viability at 72 h, 0.3 µM: 300 nM; for viability at 72 h, 1 µM: 1000 nM
# How it was run: (§1)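 Jurkat and Hep G2 cells were exposed to compounds for 72 h, with an untreated plate counted at time zero. Viability was read as CellTiter-Glo luminescence after 10 min reagent incubation at room temperature.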
# Jurkat cells = experiment: as above; conditions: for GI50: Homo sapiens; for GI50 / Relative cell viability (%): Jurkat cells, 72 h; for Relative cell viability (%): Fig. 4k; for Cell viability (%) relative to DMSO: individual replicates, Supplementary Fig. 7g
# How it was run: as §1
# BRD2 [3] = biological target: BRD2 (Homo sapiens, UniProt P25440); experiment: BRD2 levels by Western blot in Jurkat cells; set-up: endogenous in cells; host or cells: Jurkat; Hep G2; MDA-MB-231; KBM7 (WT, DCAF11 KO, DDB1 KO); Dmax: dose or concentration left out as unconfirmed; conditions: for degradation of BRD2: 3 µM, 6 h treatment
# Experimental: (§2) Cells were washed with PBS and lysed in lysis buffer (50 mM Tris-HCl, pH 7.4, 150 mM NaCl, 1% Triton X-100, 1% sodium deoxycholate, 0.1% SDS) with complete protease inhibitor cocktail (Roche, 11836170001) for 30 min on ice. For Ramos cells, cell pellets were lysed in lysis buffer (50 mM Tris-HCl, pH 8, 150 mM NaCl, 1% NP-40, 0.5% sodium deoxycholate) with complete protease inhibitor cocktail. After centrifugation at 16,000 x g, the supernatant was transferred into a new tube and the protein concentration was determined by DC protein assay (BIO-RAD, 5000116). Proteins were separated by SDS-PAGE and transferred to a PVDF membrane (Thermo scientific, 0.45 μm, 88518). For PDEδ, BRD2, GAPDH, BRD4, Vinculin and BTK, the membranes were blocked with Intercept® Blocking Buffer (LI-COR Biosciences, 927-70001) at room temperature for 1 h. The primary antibodies for these proteins were diluted with Intercept® Blocking Buffer (1:500 for PDEδ, 1:3000 for Vinculin, and 1:1000 for other proteins) and incubated with the membranes overnight at 4 °C. Membranes were washed with PBS + 0.1% Tween 20 (PBS-T) five times and incubated with secondary antibodies conjugated to IRDye® Infrared Fluorescent Dyes (1:5000, LI-COR Biosciences) at room temperature for 1 h with protection from light. After washing the membrane, signals were visualized using the ChemiDoc MP Imaging System (BIO-RAD Laboratories). For detection of LC3B, BRD3, BLK, DCAF11, DDB1 RBX1, FIP200, V5- and FLAG-Tag the membranes were blocked with 5% milk in PBS-T at room temperature for 1 h. The primary antibodies for these proteins were diluted in 5% milk in PBS-T buffer (1:200 for BRD3, 1:1000 for other proteins) and incubated with the membranes overnight at 4 °C. Membranes were washed with PBS-T five times and incubated with HRP secondary antibodies (1:1500) at room temperature for 1 h. After washing the membrane, protein detection was performed using Western blotting detection reagent (Thermo Scientific, 34095) and the ChemiDoc MP Imaging System (BIO-RAD). Relative band intensities were quantified using Image Lab (BIO-RAD).
# BRD3 = biological target: T1, BRD3 (Homo sapiens, UniProt Q15059); experiment: BRD3 levels by Western blot in Jurkat cells; conditions: for degradation of BRD3: 3 µM, 6 h treatment
# T1 construct: endogenous in cells; host or cells: Jurkat
# Experimental: as §2
# BRD4 = biological target: T2, BRD4 (Homo sapiens, UniProt O60885); experiment: BRD4 levels by Western blot in Jurkat cells; conditions: for degradation of BRD4: 3 µM, 6 h treatment
# T2 construct: endogenous in cells; host or cells: Jurkat
# Experimental: as §2
# caspase-3/7 activity = experiment: Caspase-3/7 Activity Assay in Jurkat cells; conditions: 18 h
# Experimental: Jurkat cells (3 × 10^3) were seeded in 96-well plates in 25 μl culture medium. Cells were treated with compounds dissolved in 25 μl medium at the indicated concentration for 18 h. After adding 50 μl of Caspase-Glo® 3/7 Reagent (Promega, G8091) to each well for 30 min at room temperature, the luminescence was measured on a Spark® Multimode Microplate Reader (Tecan). The data was analyzed by the GraphPad Prism 9.0.
# [4] = individual replicates, Supplementary Fig. 7g, read-out: Cell viability (%) relative to DMSO
# [5] = 72 h, Fig. 4k, read-out: Relative cell viability (%)
# T1 sequence (Q15059 whole entry): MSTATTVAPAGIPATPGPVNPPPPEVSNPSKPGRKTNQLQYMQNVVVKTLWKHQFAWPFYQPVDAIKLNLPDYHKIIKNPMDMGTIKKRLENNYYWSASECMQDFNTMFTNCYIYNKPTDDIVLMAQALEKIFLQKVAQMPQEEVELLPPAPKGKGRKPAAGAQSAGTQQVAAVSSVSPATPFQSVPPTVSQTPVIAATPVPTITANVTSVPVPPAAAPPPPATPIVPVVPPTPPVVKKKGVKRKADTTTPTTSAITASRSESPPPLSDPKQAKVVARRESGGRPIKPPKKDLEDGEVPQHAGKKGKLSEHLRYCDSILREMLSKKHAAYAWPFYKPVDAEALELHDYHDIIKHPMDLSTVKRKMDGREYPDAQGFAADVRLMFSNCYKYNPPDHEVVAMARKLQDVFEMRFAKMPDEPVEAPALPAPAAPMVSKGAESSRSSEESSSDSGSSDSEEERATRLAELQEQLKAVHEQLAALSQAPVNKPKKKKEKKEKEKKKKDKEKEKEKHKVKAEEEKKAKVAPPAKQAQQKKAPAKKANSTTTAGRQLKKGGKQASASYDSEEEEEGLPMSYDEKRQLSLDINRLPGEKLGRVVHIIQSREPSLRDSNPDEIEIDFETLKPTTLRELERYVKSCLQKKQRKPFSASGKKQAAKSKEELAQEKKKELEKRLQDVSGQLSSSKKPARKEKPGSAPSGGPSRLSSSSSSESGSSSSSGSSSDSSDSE
# Sequence of BRD2 (Homo sapiens, UniProt P25440) (P25440 whole entry): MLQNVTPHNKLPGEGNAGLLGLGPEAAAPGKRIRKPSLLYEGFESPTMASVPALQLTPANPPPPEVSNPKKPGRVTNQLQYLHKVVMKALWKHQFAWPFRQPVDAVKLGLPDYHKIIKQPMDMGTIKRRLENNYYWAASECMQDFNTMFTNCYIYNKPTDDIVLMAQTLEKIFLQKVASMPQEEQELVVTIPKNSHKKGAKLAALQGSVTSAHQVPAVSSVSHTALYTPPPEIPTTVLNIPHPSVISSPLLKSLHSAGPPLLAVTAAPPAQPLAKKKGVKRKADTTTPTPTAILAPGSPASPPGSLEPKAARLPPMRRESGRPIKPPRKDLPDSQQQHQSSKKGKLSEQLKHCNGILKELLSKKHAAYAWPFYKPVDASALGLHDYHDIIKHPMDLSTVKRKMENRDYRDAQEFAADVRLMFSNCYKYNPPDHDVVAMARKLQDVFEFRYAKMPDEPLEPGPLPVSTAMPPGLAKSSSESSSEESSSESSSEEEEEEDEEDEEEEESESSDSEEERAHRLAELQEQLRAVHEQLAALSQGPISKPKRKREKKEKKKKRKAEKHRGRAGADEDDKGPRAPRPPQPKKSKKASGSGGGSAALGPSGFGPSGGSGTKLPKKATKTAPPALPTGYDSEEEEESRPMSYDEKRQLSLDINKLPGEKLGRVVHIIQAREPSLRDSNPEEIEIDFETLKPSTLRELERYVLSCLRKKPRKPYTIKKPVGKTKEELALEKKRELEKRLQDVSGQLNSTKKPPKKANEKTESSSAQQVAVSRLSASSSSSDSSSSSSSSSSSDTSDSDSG
smiles,measurement,setting,value
O=C1Nc2ccc(Br)cc2C1=Cc1cc(Br)c(O)c(Br)c1 [Compound 2],BRD2/Vinculin intensity (relative to control group),"BRD2 [1]; Hep G2 cells, pretreated with compound at 30 μM 1 h, then 9 (10 μM, 4 h), single repeats, Fig. 4h",45.5673 and 52.7494 and 40.9253 and 42.2632 and 42.726
same,"Value (Mean ± SD): Relative BRD2 levels remaining in Hep G2 cells after treatment with compounds followed by treatment with 9, with DMSO control for normalization","BRD2 [1]; qualitative ICW assay, pretreated at 30 μM 1 h, then 9 (10 μM, 4 h), Supplementary Table 1",44.85 ± 4.23
same,"viability at 72 h, 10 nmol/L",[2]; [4],95.2%
same,"viability at 72 h, 30 nmol/L",[2]; [4],91.8%
same,"viability at 72 h, 100 nmol/L",[2]; [4],87.9%
same,"viability at 72 h, 300 nmol/L","[2]; concentration 300 nmol/L, individual replicates, Supplementary Fig. 7g, read-out: Cell viability (%) relative to DMSO",89.9%
same,"viability at 72 h, 1000 nmol/L",[2]; [4],90.3%
same,"viability at 72 h, 3000 nmol/L",[2]; [4],86.4%
same,"viability at 72 h, 30000 nmol/L","[2]; concentration 30000 nmol/L, individual replicates, Supplementary Fig. 7g, read-out: Cell viability (%) relative to DMSO",44.6%
same,"viability at 72 h, 0.01 µM",[2]; [5],98.6%
same,"viability at 72 h, 0.03 µM",[2]; [5],96.8%
same,"viability at 72 h, 0.1 µM",[2]; [5],93.4%
same,"viability at 72 h, 0.3 µM",[2]; [5],95.1%
same,"viability at 72 h, 1 µM",[2]; [5],96.9%
same,"viability at 72 h, 3 µM","[2]; 72 h, 3000 nM, Fig. 4k, read-out: Relative cell viability (%)",93.5%
same,"viability at 72 h, 10 µM","[2]; 72 h, 10000 nM, Fig. 4k, read-out: Relative cell viability (%)",80.3%
same,"viability at 72 h, 30 µM","[2]; 72 h, 30000 nM, Fig. 4k, read-out: Relative cell viability (%)",59.8%
same,GI50,Jurkat cells,> 30000 nM
same,Relative cell viability (%),"Jurkat cells; 10 nM, 0.01 µM",109.397% and 95.8659%
same,Relative cell viability (%),"Jurkat cells; 30 nM, 0.03 µM",109.179% and 98.227%
same,Relative cell viability (%),"Jurkat cells; 100 nM, 0.1 µM",109.452% and 110.948%
same,Relative cell viability (%),"Jurkat cells; 300 nM, 0.3 µM",108.619% and 101.195%
same,Relative cell viability (%),"Jurkat cells; 1000 nM, 1 µM",100.635% and 106.748%
same,Relative cell viability (%),"Jurkat cells; 3000 nM, 3 µM",102.832% and 100.062%
same,Relative cell viability (%),"Jurkat cells; 10000 nM, 10 µM",99.6522% and 88.024%
same,Relative cell viability (%),"Jurkat cells; 30000 nM, 30 µM",74.0357% and 70.3951%
same,Cell viability (%) relative to DMSO,Jurkat cells; concentration 10 nmol/L,103.951% and 104.068%
same,Cell viability (%) relative to DMSO,Jurkat cells; concentration 30 nmol/L,103.682% and 105.344%
same,Cell viability (%) relative to DMSO,Jurkat cells; concentration 100 nmol/L,100.341% and 100.604%
same,Cell viability (%) relative to DMSO,Jurkat cells; concentration 300 nmol/L,97.5611% and 103.704%
same,Cell viability (%) relative to DMSO,Jurkat cells; concentration 1000 nmol/L,98.2177% and 99.0254%
same,Cell viability (%) relative to DMSO,Jurkat cells; concentration 3000 nmol/L,82.942% and 99.8195%
same,Cell viability (%) relative to DMSO,Jurkat cells; concentration 10000 nmol/L,67.1883% and 83.6742% and 92.9267%
same,Cell viability (%) relative to DMSO,Jurkat cells; concentration 30000 nmol/L,49.2545% and 60.9936%
same,"BRD2 protein levels, ligands alone or in combination","BRD2 [3]; 3 μM, 4 h",did not reduce BRD2 protein levels
Cc1sc2c(c1C)C(c1ccc(Cl)cc1)=N[C@@H](CC(=O)NCCOCCOCCOCCOCCNC(=O)COc1c(Br)cc(/C=C3\C(=O)Nc4ccc(Br)cc43)cc1Br)c1nnc(C)n1-2 [Compound 9],degradation of BRD3,BRD3,potent degradation activity
same,hook effect for BRD3,"BRD3; 6 h, at 10 µM",strong hook effect
same,degradation of BRD4,BRD4,potent degradation activity
same,hook effect for BRD4,"BRD4; 6 h, up to 50 µM concentration",almost no hook effect
same,BRD2 depletion by In-Cell Western,"BRD2 [1]; Hep G2 cells, 4 h",dose-dependent depletion of BRD2
same,"viability at 72 h, 10 nmol/L",[2]; [4],89.8%
same,"viability at 72 h, 30 nmol/L",[2]; [4],92.8%
same,"viability at 72 h, 100 nmol/L",[2]; [4],101%
same,"viability at 72 h, 1000 nmol/L",[2]; [4],13%
same,"viability at 72 h, 3000 nmol/L",[2]; [4],1.47%
same,"viability at 72 h, 0.01 µM",[2]; [5],100%
same,"viability at 72 h, 0.03 µM",[2]; [5],92%
same,"viability at 72 h, 0.1 µM",[2]; [5],64.6%
same,GI50,Jurkat cells,90 ± 20 nM
same,caspase-3/7 activation compared with JQ1 or non-active degraders 16 and 17,caspase-3/7 activity,substantially higher
same,degradation of BRD2,BRD2 [3],potent degradation activity
same,BRD2 levels after washout,"BRD2 [3]; 10 μM, 5 h prior to washout",did not recover
same,DC50,"BRD2 [3]; 6 h, read-out: half-maximal degradation concentration (DC50) of BRD2",255 nM
same,Dmax,"BRD2 [3]; 6 h, read-out: maximum level of degradation (Dmax) of BRD2",84%
same,hook effect for BRD2,"BRD2 [3]; 6 h, up to 50 µM concentration",almost no hook effect
Cc1sc2c(c1C)C(c1ccc(Cl)cc1)=NC(CC(=O)NCCOCCOCCOCCOc1c(Br)cc(C=C3C(=O)Nc4ccc(Br)cc43)cc1Br)c1nnc(C)n1-2 (stereo not drawn) [Compound 10],degradation of BRD3,BRD3,potent degradation activity
same,degradation of BRD4,BRD4,potent degradation activity
same,"viability at 72 h, 10 nmol/L",[2]; [4],89.7%
same,"viability at 72 h, 30 nmol/L",[2]; [4],90.1%
same,"viability at 72 h, 0.1 µM",[2]; [5],70.8%
same,"viability at 72 h, 0.3 µM",[2]; [5],33.9%
same,"viability at 72 h, 1 µM",[2]; [5],1.17%
same,GI50,Jurkat cells,190 ± 30 nM
same,caspase-3/7 activation compared with JQ1 or non-active degraders 16 and 17,caspase-3/7 activity,substantially higher
same,degradation of BRD2,BRD2 [3],potent degradation activity
same,remaining activity at 3 µM,"BRD2 [3]; Jurkat, 6 h, 3 μM, 6 h, Fig. 4j, read-out: BRD2/Vinculin intensity (relative to DMSO control group)",30.7%
